We go through five molecules from the NIST ThermoML archive (doi:10.1021/je0495583).

As a reminder, the refractive index is a measure of how strongly the sample bends light. The mass density is the mass of a sample divided by its volume.

Series [1] can be described thus: refractive index (Na D-line) (dimensionless). The following applies: 298.15 K; 101.33 kPa; Liquid; Standard Abbe refractometry.
For series [2] the following is noted: 293.15 K; 101.33 kPa; Liquid; Pycnometric method.

± gives the expanded uncertainty stated by the source.

As to `CCC(C)(C)OC` [2-methoxy-2-methylbutane], the refractive index in series [1] is given as 1.3867 ± 0.0008. Also, the mass density in series [2] was determined as 770.6 ± 0.8 kg/m3.

As for `COC(C)(C)C` [2-methoxy-2-methylpropane], the refractive index in series [1] is 1.366 ± 0.0008. For the same molecule, the mass density in series [2] is recorded as 740.5 ± 0.8 kg/m3.

For `C1CCCCC1` [cyclohexane], the refractive index in series [1] is reported as 1.4236 ± 0.0008. The mass density in series [2] came out at 778.4 ± 0.8 kg/m3.

Consider `CCCCCC` [hexane], for which the refractive index in series [1] worked out at 1.3722 ± 0.0007. For the same molecule, the mass density in series [2] was 659.4 ± 0.6 kg/m3.

In the case of `Cc1ccccc1` [toluene], in series [1], the refractive index was 1.4941 ± 0.0008. Besides, in series [2], the mass density worked out at 866.2 ± 0.9 kg/m3.
